In assay [1] the test system is Human immunodeficiency virus 1. Nature of the assay: Antiviral activity against HIV1 LAI infected in human PBM cells after 5 days. In kind it is functional, organism-based. To be noted: Human immunodeficiency virus 1, LAI, PBMC, 120 h.
The next assay deals with PBMC. Nature of the assay: Cytotoxicity against human PBMC after 5 days. In kind it is cell-based. To be noted: 120 h.
A further assay relates to CCRF-CEM. Put plainly: Cytotoxicity against human CEM cells after 5 days. In kind it is ADME, cell-based. To be noted: 120 h.
In a further assay the test system is Vero. Nature of the assay: Cytotoxicity against african green monkey Vero cells after 5 days. In kind it is ADME, cell-based. Conditions: Chlorocebus sabaeus, 120 h.

As for `COc1nc(F)nc2c1ncn2[C@H]1C[C@H](N=[N+]=[N-])[C@@H](CO)O1`, in assay [1], the EC50 (in general, the concentration needed to bring the measured effect to its halfway point) is greater than 100 µM. Moreover, in assay [1], the 90% effect concentration (EC90) (in general, the concentration needed for an effect of 90%) is greater than 100 µM. The half-maximal inhibitory concentration (IC50) (as a rule, the concentration that inhibits the measured activity by half) is 9.4 µM with PBMC, greater than 100 µM in the assay on CCRF-CEM and greater than 100 µM in the assay on Vero.

In assay [1], `CN(C)c1nc(N)nc2c1ncn2[C@H]1C[C@H](N=[N+]=[N-])[C@@H](CO)O1` yielded a 50% effective concentration (EC50) of 0.21 µM. This compound also gave a concentration for an effect of 90% (EC90) in assay [1] of 1.1 µM. The IC50 with PBMC, in the assay with CCRF-CEM and in the assay on Vero was greater than 100 µM each time.

In the case of `[N-]=[N+]=N[C@H]1C[C@H](n2cnc3c(NC4CC4)nc(N)nc32)O[C@@H]1CO`, in assay [1], a half-maximal effect (EC50) was put at 1.5 µM. Moreover, the EC90 in assay [1] came out at 8.8 µM. Further, the half-inhibitory concentration (IC50) in the assay on PBMC, in the assay with CCRF-CEM and with Vero was greater than 100 µM in each case.

For `[N-]=[N+]=N[C@H]1C[C@H](n2cnc3c(Cl)nc(F)nc32)O[C@@H]1CO`, the 50% effective concentration (EC50) in assay [1] was found to be 2.6 µM. Besides, in assay [1], the EC90 was determined as 10 µM. Also, the concentration for half-maximal inhibition (IC50) in the assay on PBMC turned out to be 7.2 µM; with CCRF-CEM, 13.3 µM; in the assay on Vero it was 21.8 µM.

For the compound `[N-]=[N+]=N[C@H]1C[C@H](n2cnc3c(NCCO)nc(N)nc32)O[C@@H]1CO`, the EC50 in assay [1] came out at 2.1 µM. This compound also gave a concentration for an effect of 90% (EC90) in assay [1] of 16.2 µM. The concentration for half-maximal inhibition (IC50) in the assay on PBMC, in the assay on CCRF-CEM and in the assay on Vero was greater than 100 µM in each case.

Regarding `COc1nc(OC)c2ncn([C@H]3C[C@H](N=[N+]=[N-])[C@@H](CO)O3)c2n1`, in assay [1], the concentration giving a half-maximal response (EC50) amounted to 13.2 µM. For the same compound, the EC90 in assay [1] is greater than 100 µM. Also, the IC50 with PBMC, in the assay with CCRF-CEM and with Vero was greater than 100 µM each time.

`[N-]=[N+]=N[C@H]1C[C@H](n2cnc3c(NC4CC4)nc(Cl)nc32)O[C@@H]1CO` came in with an EC50 in assay [1] of 15 µM. For the same compound, it took 51.5 µM to reach the 90% level in assay [1] (EC90). The IC50 with PBMC was 35.3 µM; in the assay with CCRF-CEM it was greater than 100 µM; in the assay with Vero it was greater than 100 µM.

With `COc1nc(NC2CC2)c2ncn([C@H]3C[C@H](N=[N+]=[N-])[C@@H](CO)O3)c2n1`, in assay [1], the 50% effective concentration (EC50) was determined as 59.7 µM. Further, the EC90 in assay [1] was greater than 100 µM. Besides, the IC50 with PBMC, in the assay on CCRF-CEM and in the assay with Vero was greater than 100 µM throughout.

In assay [1], `CC(C)(CO)Nc1nc(N)nc2c1ncn2[C@H]1C[C@H](N=[N+]=[N-])[C@@H](CO)O1` displayed a concentration for a half-maximal effect (EC50) of 52.5 µM. For the same compound, the EC90 in assay [1] is greater than 10 µM. Further, the 50% inhibitory concentration (IC50) in the assay on PBMC, in the assay on CCRF-CEM and in the assay on Vero was greater than 100 µM throughout.

`C#CCNc1nc(N)nc2c1ncn2[C@H]1C[C@H](N=[N+]=[N-])[C@@H](CO)O1` returned an EC50 in assay [1] of 1.7 µM. The compound further showed an EC90 in assay [1] of 8.5 µM. The IC50 in the assay on PBMC, in the assay with CCRF-CEM and with Vero was greater than 100 µM in each case.

`[N-]=[N+]=N[C@H]1C[C@H](n2cnc3c(NCCCCCO)nc(N)nc32)O[C@@H]1CO` had a half-maximal effective concentration (EC50) in assay [1] of 86.5 µM. Further, the concentration for an effect of 90% (EC90) in assay [1] is greater than 10 µM. The half-maximal inhibitory concentration (IC50) in the assay with PBMC, in the assay on CCRF-CEM and in the assay with Vero was greater than 100 µM each time.

In turn, `C=CCNc1ncnc2c1ncn2[C@H]1C[C@H](N=[N+]=[N-])[C@@H](CO)O1` showed an EC50 in assay [1] of 0.3 µM. For the same compound, the EC90 in assay [1] came out at 1.5 µM. Further, the IC50 with PBMC is 51.1 µM; in the assay on CCRF-CEM it was greater than 100 µM; with Vero it was greater than 100 µM.

In assay [1], `C=CCN(C)c1nc(N)nc2c1ncn2[C@H]1C[C@H](N=[N+]=[N-])[C@@H](CO)O1` yielded an EC50 of 0.4 µM. The EC90 in assay [1] turned out to be 1.5 µM. Further, the IC50 was greater than 100 µM in the assay on PBMC, 27 µM in the assay with CCRF-CEM and 32 µM in the assay with Vero.

In turn, `Cc1cn([C@H]2C[C@H](N=[N+]=[N-])[C@@H](CO)O2)c(=O)[nH]c1=O` [ZIDOVUDINE] registered an EC90 in assay [1] of 0.02 µM. The compound further yielded an IC50 in the assay with PBMC greater than 100 µM.

In assay [1], `CC(CO)Nc1nc(N)nc2c1ncn2[C@H]1C[C@H](N=[N+]=[N-])[C@@H](CO)O1` (some centres not stated) returned a 50% effective concentration (EC50) of 59.9 µM. Moreover, the EC90 in assay [1] was greater than 10 µM. The half-maximal inhibitory concentration (IC50) with PBMC, in the assay on CCRF-CEM and in the assay with Vero was greater than 100 µM throughout.

`COc1nc(N)c2ncn([C@H]3C[C@H](N=[N+]=[N-])[C@@H](CO)O3)c2n1`: a half-maximal response in assay [1] (EC50) required 12.4 µM. In assay [1], this compound registered an EC90 of 39.6 µM. Also, the IC50 in the assay on PBMC was 35 µM; with CCRF-CEM, greater than 100 µM; in the assay on Vero, greater than 100 µM.

On to `[N-]=[N+]=N[C@H]1C[C@H](n2cnc3c(N)nc(F)nc32)O[C@@H]1CO`, for which, in assay [1], a half-maximal response (EC50) required 45.8 µM. Besides, in assay [1], the EC90 came to 94.7 µM. The half-inhibitory concentration (IC50) with PBMC came to 30.1 µM; in the assay on CCRF-CEM, 30.1 µM; in the assay on Vero, 34.4 µM.

As to `[N-]=[N+]=N[C@H]1C[C@H](n2ccc(=O)[nH]c2=O)O[C@@H]1CO` [NAVURIDINE], in assay [1], a half-maximal effect (EC50) was put at 0.16 µM. The same compound displayed an EC90 in assay [1] of 0.6 µM. The figures for the IC50 in the assay on PBMC, with CCRF-CEM and in the assay on Vero were greater than 100 µM, 69.3 µM and 26 µM, respectively.

As for `COc1nc(Cl)nc2c1ncn2[C@H]1C[C@H](N=[N+]=[N-])[C@@H](CO)O1`, the EC50 in assay [1] worked out at 55.3 µM. In addition, in assay [1], the concentration for an effect of 90% (EC90) was greater than 100 µM. The IC50 in the assay with PBMC, with CCRF-CEM and in the assay on Vero was greater than 100 µM in each case.

In turn, `[N-]=[N+]=N[C@H]1C[C@H](n2cnc3c(N)nc(Cl)nc32)O[C@@H]1CO` came in with an EC50 in assay [1] of 50.3 µM. The same compound gave an EC90 in assay [1] greater than 100 µM. In addition, the half-maximal inhibitory concentration (IC50) with PBMC is 35.8 µM; in the assay on CCRF-CEM, greater than 100 µM; with Vero it was greater than 100 µM.

`CNc1nc(Cl)nc2c1ncn2[C@H]1C[C@H](N=[N+]=[N-])[C@@H](CO)O1` returned an EC50 in assay [1] greater than 100 µM. The same compound had an EC90 in assay [1] greater than 100 µM. For the same compound, the half-inhibitory concentration (IC50) in the assay on PBMC, in the assay on CCRF-CEM and in the assay on Vero was greater than 100 µM throughout.

On to `C=CCNc1nc(N)nc2c1ncn2[C@H]1C[C@H](N=[N+]=[N-])[C@@H](CO)O1`, for which the half-maximal effective concentration (EC50) in assay [1] is 0.5 µM. The compound further returned an EC90 in assay [1] of 4.3 µM. For the same compound, the IC50 with PBMC, in the assay on CCRF-CEM and in the assay on Vero was greater than 100 µM each time.

Turning to `CN(C)c1nc(Cl)nc2c1ncn2[C@H]1C[C@H](N=[N+]=[N-])[C@@H](CO)O1`, in assay [1], the concentration for a half-maximal effect (EC50) is greater than 100 µM. Further, in assay [1], the EC90 was greater than 100 µM. The IC50 in the assay with PBMC, with CCRF-CEM and in the assay on Vero was greater than 100 µM each time.

For the origin of these results see ChEMBL document CHEMBL1153164, “Synthesis and evaluation of 3'-azido-2',3'-dideoxypurine nucleosides as inhibitors of human immunodeficiency virus” (Bioorg Med Chem Lett, 2010).
